System: adult patients with uncontrolled gout
Test: Serum uric acid (sUA) levels and sUA responder rate, open-label study of pegloticase with MTX (MIRROR OL)
Assay type: in vivo, human
Conditions: Month 6 sUA Responders
Procedure: The primary objective is to estimate the response rate during Month 6 (Weeks 20, 22, and 24), as measured by the sustained normalization of serum uric acid (SUA) to <6 mg/dL for at least 80% of the time during Month 6 in subjects receiving KXX with MTX.
The primary efficacy outcome endpoint is the sustained normalization of SUA to <6 mg/dL for at least 80% of the time during month 6 (weeks 20, 22, and 24) in subjects receiving KXX with MTX. […] Participants who achieve this endpoint were classified as “responders.” Serum uric acid (SUA) responders may also be defined as participants achieving and maintaining SUA <6 mg/dL for at least 80% of the time during Month 6 (Weeks 20, 22, and 24).
Blood samples may be collected prior to each pegloticase infusion for measurement of SUA levels using the Beckman Coulter AU System Uric Acid procedure. Participants were declared “non-responders” if there were SUA measures >6 mg/dL at 2 consecutive study visits beginning with the week 2 visit. […] This assumption and subsequent discontinuation of pegloticase was consistent with the protocol of large phase III randomized controlled trials and the product label. A formal stopping rule was 2 occasions of SUA levels of greater than 6 mg/dL.
Clinical Chemistry—Blood samples were collected prior to each pegloticase infusion for measurement of SUA levels (primary efficacy parameter) using the Beckman Coulter AU System Uric Acid procedure. In this procedure uric acid is converted to hydrogen peroxide. Hydrogen peroxide reacts with reagent to produce a chromophore which is read bichromatically at 660/800 nm. The amount of dye formed is proportional to the uric acid concentration in the sample.
Serum samples for measurement of SUA levels were collected at the Screening Visit, the Week −4 Visit (prior to the first dose of MTX), and the Week −2 Visit during the MTX Run-in Period; within 48 hours prior to each pegloticase infusion and after the end of each pegloticase infusion prior to discharge from the site during the Pegloticase+IMM Period; at the non-infusion Week 52/End of Study/Early Termination Visits and at the Post Treatment 3 and 6 Month Follow-up Visits. Additional serum samples for SUA levels were collected at optional non-infusion (Frequent Sampling) Visits at Weeks 1 and 7. […] Subjects with SUA level >6 mg/dL at 2 consecutive visits beginning at Week 2 visit discontinued treatment, completed the End of Pegloticase Infusion Visit procedures within 2 weeks and continued the subject visits according to the protocol (without treatment).
Efficacy analyses were performed using the modified intention-to-treat (mITT) population, defined as all enrolled subjects who received ≥1 dose of pegloticase. The proportion of Month 6 responders was summarized, along with a 95% confidence interval for the proportion. The proportion of Month 3 and overall (Months 3 and 6 combined) responders was analyzed similarly.
A subject was declared a non-responder if the subject had SUA level >6 mg/dL at 2 consecutive study visits beginning with the Week 2 Visit. In addition, a subject who withdraws from study treatment for any reason after the first dose of pegloticase in the KXX+MTX Period and prior to Month 6 (for the primary endpoint) or Month 3 (for the secondary endpoint) was considered a non-responder if SUA values were not collected at the planned time points.
Patients were administered oral MTX (15 mg/week) and folate (1 mg/day) 4 weeks prior to the first pegloticase infusion (Day 1) and throughout the pegloticase treatment period. Blood was drawn prior to each infusion to measure sUA level, monitor clinical parameters, and examine for ADA development. All patients followed typical IR prophylaxis protocols (fexofenadine one day before and the morning of each infusion and acetaminophen and IV corticosteroid the morning of each infusion).

[1] = End of Pegloticase Infusions Visit, n=2

## pegloticase
Day 1-Post-Infusion, n=8
  Serum Uric Acid, Observed, Median: 0.30 mg/dL
  sUA <6 mg/dL, n (%): 8 (100%)
[1]
  Serum Uric Acid, Change from Baseline, Mean (SD): −8.50 (1.556) mg/dL
  Serum Uric Acid, Change from Baseline, Median: -8.50 mg/dL
  Serum Uric Acid, Observed, Mean (SD): 0.30 (0.000) mg/dL
  Serum Uric Acid, Observed, Median: 0.30 mg/dL
  sUA <6 mg/dL, n (%): 2 (100%)
Week 1, n=4
  Serum Uric Acid, Change from Baseline, Mean (SD): −6.88 (1.836) mg/dL
  Serum Uric Acid, Change from Baseline, Median: -7.15 mg/dL
  Serum Uric Acid, Observed, Mean (SD): 0.30 (0.000) mg/dL
  Serum Uric Acid, Observed, Median: 0.30 mg/dL
  sUA <6 mg/dL, n (%): 4 (100%)
Week 2-Post-Infusion, n=11
  Serum Uric Acid, Change from Baseline, Mean (SD): −8.97 (2.810) mg/dL
  Serum Uric Acid, Change from Baseline, Median: -8.80 mg/dL
  Serum Uric Acid, Observed, Mean (SD): 0.30 (0.000) mg/dL
  Serum Uric Acid, Observed, Median: 0.30 mg/dL
  sUA <6 mg/dL, n (%): 11 (100%)
Week 2-Pre-Infusion, n=11
  Serum Uric Acid, Change from Baseline, Mean (SD): −8.64 (2.086) mg/dL
  Serum Uric Acid, Change from Baseline, Median: -8.80 mg/dL
  Serum Uric Acid, Observed, Mean (SD): 0.63 (1.096) mg/dL
  Serum Uric Acid, Observed, Median: 0.30 mg/dL
  sUA <6 mg/dL, n (%): 11 (100%)
Week 4-Post-Infusion, n=11
  Serum Uric Acid, Change from Baseline, Mean (SD): −8.97 (2.810) mg/dL
  Serum Uric Acid, Observed, Mean (SD): 0.30 (0.000) mg/dL
Week 4-Pre-Infusion, n=11
  Serum Uric Acid, Change from Baseline, Mean (SD): −8.59 (2.884) mg/dL
  Serum Uric Acid, Change from Baseline, Median: -8.60 mg/dL
  Serum Uric Acid, Observed, Mean (SD): 0.68 (1.043) mg/dL
  Serum Uric Acid, Observed, Median: 0.30 mg/dL
  sUA <6 mg/dL, n (%): 11 (100%)
Week 7, n=4
  sUA <6 mg/dL, n (%): 4 (100%)
Week 8-Post-Infusion, n=11
  Serum Uric Acid, Change from Baseline, Mean (SD): −8.97 (2.810) mg/dL
  Serum Uric Acid, Change from Baseline, Median: -8.80 mg/dL
  Serum Uric Acid, Observed, Mean (SD): 0.30 (0.000) mg/dL
  Serum Uric Acid, Observed, Median: 0.30 mg/dL
  sUA <6 mg/dL, n (%): 11 (100%)
Week 8-Pre-Infusion, n=11
  Serum Uric Acid, Change from Baseline, Mean (SD): −8.91 (2.824) mg/dL
  Serum Uric Acid, Change from Baseline, Median: -8.60 mg/dL
  Serum Uric Acid, Observed, Mean (SD): 0.37 (0.224) mg/dL
  Serum Uric Acid, Observed, Median: 0.30 mg/dL
  sUA <6 mg/dL, n (%): 11 (100%)
Week 10-Post-Infusion, n=11
  Serum Uric Acid, Change from Baseline, Mean (SD): −8.97 (2.810) mg/dL
  Serum Uric Acid, Change from Baseline, Median: -8.80 mg/dL
  Serum Uric Acid, Observed, Mean (SD): 0.30 (0.000) mg/dL
  Serum Uric Acid, Observed, Median: 0.30 mg/dL
  sUA <6 mg/dL, n (%): 11 (100%)
Week 10-Pre-Infusion, n=11
  Serum Uric Acid, Change from Baseline, Mean (SD): −8.97 (2.810) mg/dL
  Serum Uric Acid, Change from Baseline, Median: -8.80 mg/dL
  Serum Uric Acid, Observed, Mean (SD): 0.30 (0.000) mg/dL
  Serum Uric Acid, Observed, Median: 0.30 mg/dL
  sUA <6 mg/dL, n (%): 11 (100%)
Week 12-Post-Infusion, n=10
  Serum Uric Acid, Change from Baseline, Mean (SD): −9.13 (2.911) mg/dL
  Serum Uric Acid, Change from Baseline, Median: -9.05 mg/dL
  Serum Uric Acid, Observed, Mean (SD): 0.30 (0.000) mg/dL
  Serum Uric Acid, Observed, Median: 0.30 mg/dL
  sUA <6 mg/dL, n (%): 10 (100%)
Week 12-Pre-Infusion, n=11
  Serum Uric Acid, Change from Baseline, Mean (SD): −8.98 (2.806) mg/dL
  Serum Uric Acid, Change from Baseline, Median: -8.80 mg/dL
  Serum Uric Acid, Observed, Mean (SD): 0.30 (0.015) mg/dL
  Serum Uric Acid, Observed, Median: 0.30 mg/dL
  sUA <6 mg/dL, n (%): 11 (100%)
Week 14-Post-Infusion, n=10
  Serum Uric Acid, Change from Baseline, Mean (SD): −9.01 (2.959) mg/dL
  Serum Uric Acid, Change from Baseline, Median: -9.05 mg/dL
  Serum Uric Acid, Observed, Mean (SD): 0.30 (0.000) mg/dL

From US20220409620A1, “REDUCING IMMUNOGENICITY TO PEGLOTICASE” (Horizon Pharma Rheumatology LLC, priority 2016, published 2022)
